# Key:
# [1] = target: T1, Integrin alpha-IIb/beta-3 (Homo sapiens, UniProt P05106+P08514); assay: Inhibition of Platelet glycoprotein IIb/Platelet glycoprotein IIIa binding in unactivated human platelets
# Target sequence in this assay (P05106 27-788 limits assumed): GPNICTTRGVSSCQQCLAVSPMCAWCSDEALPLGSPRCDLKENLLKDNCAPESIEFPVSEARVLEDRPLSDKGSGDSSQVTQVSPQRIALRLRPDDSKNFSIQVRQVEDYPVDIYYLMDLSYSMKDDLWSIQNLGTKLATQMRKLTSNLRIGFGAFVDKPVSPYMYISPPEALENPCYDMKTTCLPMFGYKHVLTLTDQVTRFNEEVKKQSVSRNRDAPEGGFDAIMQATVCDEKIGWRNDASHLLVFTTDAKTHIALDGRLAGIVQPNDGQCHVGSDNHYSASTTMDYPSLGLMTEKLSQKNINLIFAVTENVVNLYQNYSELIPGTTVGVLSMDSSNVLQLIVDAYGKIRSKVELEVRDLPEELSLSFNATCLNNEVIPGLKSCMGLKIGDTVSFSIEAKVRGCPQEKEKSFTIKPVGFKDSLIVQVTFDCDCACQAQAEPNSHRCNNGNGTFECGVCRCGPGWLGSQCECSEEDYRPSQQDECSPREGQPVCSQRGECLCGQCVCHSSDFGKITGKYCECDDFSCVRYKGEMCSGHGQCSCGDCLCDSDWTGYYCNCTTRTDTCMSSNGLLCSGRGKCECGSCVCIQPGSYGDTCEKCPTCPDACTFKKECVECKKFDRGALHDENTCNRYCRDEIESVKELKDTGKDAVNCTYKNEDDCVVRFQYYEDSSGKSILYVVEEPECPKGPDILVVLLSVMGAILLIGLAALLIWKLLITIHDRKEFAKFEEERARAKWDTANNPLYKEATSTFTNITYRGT
# Target sequence in this assay (P08514 32-887 limits assumed): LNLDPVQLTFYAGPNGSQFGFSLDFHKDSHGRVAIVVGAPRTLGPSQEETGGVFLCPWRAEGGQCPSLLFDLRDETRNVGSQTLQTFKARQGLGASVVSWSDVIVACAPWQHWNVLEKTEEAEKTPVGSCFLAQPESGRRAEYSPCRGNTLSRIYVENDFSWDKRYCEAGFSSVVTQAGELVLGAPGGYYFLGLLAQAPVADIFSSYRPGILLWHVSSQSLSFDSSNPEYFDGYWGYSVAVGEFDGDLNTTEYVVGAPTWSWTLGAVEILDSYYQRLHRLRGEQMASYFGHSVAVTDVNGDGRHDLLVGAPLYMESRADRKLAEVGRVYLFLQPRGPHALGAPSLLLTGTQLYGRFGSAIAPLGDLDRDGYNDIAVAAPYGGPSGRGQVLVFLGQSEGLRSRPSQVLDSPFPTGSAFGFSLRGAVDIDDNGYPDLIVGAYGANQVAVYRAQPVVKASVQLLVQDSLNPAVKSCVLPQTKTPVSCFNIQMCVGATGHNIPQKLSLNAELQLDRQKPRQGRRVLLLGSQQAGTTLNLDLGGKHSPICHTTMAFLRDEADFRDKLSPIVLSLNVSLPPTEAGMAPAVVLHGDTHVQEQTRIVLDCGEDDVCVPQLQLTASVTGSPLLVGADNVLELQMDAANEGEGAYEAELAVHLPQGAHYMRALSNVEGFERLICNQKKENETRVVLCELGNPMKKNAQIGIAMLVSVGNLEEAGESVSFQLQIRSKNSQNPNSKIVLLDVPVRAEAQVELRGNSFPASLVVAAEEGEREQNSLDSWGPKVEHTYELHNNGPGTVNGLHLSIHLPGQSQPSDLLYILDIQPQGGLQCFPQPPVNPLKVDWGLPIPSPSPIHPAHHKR
# Target sequence in this assay (P08514 891-1039 limits assumed): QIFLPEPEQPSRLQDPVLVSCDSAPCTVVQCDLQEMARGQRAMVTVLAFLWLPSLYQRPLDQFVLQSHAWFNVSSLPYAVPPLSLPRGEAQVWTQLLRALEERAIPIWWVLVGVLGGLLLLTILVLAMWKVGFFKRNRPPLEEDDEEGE
# [2] = target: T1, Integrin alpha-IIb/beta-3; assay: Inhibition of GPIIb/IIIa binding in activated human platelets; type: functional
# Target sequence in this assay (P05106 27-788 limits assumed): as the sequence (P05106 27-788 limits assumed) above
# Target sequence in this assay (P08514 32-887 limits assumed): as the sequence (P08514 32-887 limits assumed) above
# Target sequence in this assay (P08514 891-1039 limits assumed): as the sequence (P08514 891-1039 limits assumed) above
# [3] = target: T1, Integrin alpha-IIb/beta-3; assay: Relative binding to unactivated/activated platelets
IC50 [1] [nM],IC50 [2] [nM],Ratio [3],Structure (SMILES)
112,4,28,N=C(N)c1ccc(C2=NOC(CC(=O)NCCC(=O)O)C2)cc1 (stereo not given)
64,2,,"N=C(N)c1ccc(C2=NOC(CC(=O)N3CCCCC3CC(=O)O)C2)cc1 (single isomer, unassigned; isomer C) [listing 2 of 2 here]"

# More lines, now with the values behind:
Structure (SMILES),IC50 [1] [nM],IC50 [2] [nM],Ratio [3]
"N=C(N)c1ccc(C2=NOC(CC(=O)N3CCCCC3CC(=O)O)C2)cc1 (single isomer, unassigned; isomer B) [listing 1 of 2 here]",5800,302,
"N=C(N)c1ccc(C2=NOC(CC(=O)N3CCCCC3CC(=O)O)C2)cc1 (single isomer, unassigned; isomer C) [listing 1 of 2 here]",,,32
"N=C(N)c1ccc(C2=NOC(CC(=O)N3CCCCC3CC(=O)O)C2)cc1 (single isomer, unassigned; isomer D)",> 5000,,
"N=C(N)c1ccc(C2=NOC(CC(=O)N3CCCCC3CC(=O)O)C2)cc1 (single isomer, unassigned; isomer B) [listing 2 of 2 here]",,,19
